Laboratory results as given in US11859248B2, “Nucleic acid modification and identification method” (IMBA—INSTITUT FÜR MOLEKULARE BIOTECHNOLOGIE GMBH, priority 2017, dated 2024).

What was measured:
[1] = system: K562 cells; experiment: SLAM-seq transcriptional response in K562 cells; assay type: cell-based, human
Description: (§1) All SLAM-seq assays were performed at 60-70% confluency for adherent cells or 60% of the maximum cell density counted on a hemocytometer for suspension cells. 5-7 h prior to each assay, growth medium was aspirated and replaced. Unless stated otherwise, cells were pre-treated with indicated small molecule inhibitors or 100 μM IAA for 30 minutes to pre-establish full target inhibition or degradation. Newly synthesized RNA was labeled for indicated time spans (45′ or 60′) at a final concentration of 100 μM 4-thiouridine (s^4U, Carbosynth). Adherent cells were harvested by direct snap-freezing of plates on dry ice. Suspension cells were spun down and immediately snap-frozen. RNA extraction was performed using the RNeasy Plus Mini Kit (Qiagen). Total RNA was subjected to alkylation by iodoacetamide (Sigma, 10 mM) for 15′ and RNA was re-purified by ethanol precipitation. […]
(§2) All other SLAM-seq experiments were performed in triplicates and analyzed as follows. Differential gene expression calling was performed on raw read counts with 2 T>C conversions using DESeq2 (version 1.14.1) with default settings, and with size factors estimated on corresponding total mRNA reads for global normalization. […]

[2] = system: Pol2-S2 phosphorylation; experiment: Pol2-S2 phosphorylation after BETi treatment in K562 cells; assay type: cell-based, human; settings: high-dose (1 or 5 μM)
Description: (§3) Chemiluminescent detection of primary antibodies was performed using HRP-conjugated secondary antibodies (Cell Signaling Technology, catalog numbers #7074, #7076 and #7077). Alternatively, fluorescence detection of rabbit and mouse primary antibodies was performed on an Odyssey CLx Imaging System (LI-COR Biosciences) using secondary antibodies IRDye 680RD Goat anti-Rabbit IgG and IRDye 800CW Goat anti-Mouse IgG (LI-COR Biosciences).
(§4) While these findings are in line with the promiscuous binding of BRD4 to active TSS and its physical interaction with core transcriptional machinery, they contrast selective effects observed after BETi treatment in conventional expression analysis. To define immediate transcriptional effects of BETi and compare them to BRD4 degradation, we performed SLAM-seq following treatment with different doses of the BETi JQ1 in K562 cells and the acute myeloid leukemia (AML) cell line MV4-11.

[3] = system: Pol2-S2 phosphorylation; experiment: Pol2-S2 phosphorylation after BETi treatment in MV4-11 cells; assay type: cell-based, human; settings: high-dose (1 or 5 μM)
Description: as §3, §4

[4] = system: MV4-11; experiment: SLAM-seq transcriptional response in MV4-11 cells; assay type: cell-based, human; settings: high-dose (1 or 5 μM)
Description: as §1, §2

[5] = system: MYC; experiment: Auxin-inducible degradation of AID-tagged MYC in K562 cells (immunoblotting); assay type: cell-based, human; settings: Tir1-expressing
[6] = system: MYC; experiment: Auxin-inducible degradation of AID-tagged MYC in HCT116 cells (immunoblotting); assay type: cell-based, human; settings: TIR1-expressing HCT116 MYC-AID cells
[7] = system: BRD4; experiment: Auxin-inducible degradation of AID-tagged BRD4 in K562 cells (immunoblotting); assay type: cell-based, human; settings: AID-tagged K562 cells expressing Tir1
[8] = system: reverse transcriptases (Superscript II, Superscript III, Quant-seq RT); experiment: Reverse transcription of synthetic thiol-nucleotide-containing RNA followed by high-throughput sequencing; assay type: biochemical; settings: s^6G-containing RNA
Description: Primer extension assays were essentially performed as described previously by Nilsen et al. (Cold Spring Harb Protoc. 2013, 1182-1185). Briefly, template RNA oligonucleotides (5L-let-7-3L or 5L-let-7-s^4Up9-3L; Dharmacon; see Table for sequences) were deprotected according to the instructions of the manufacturer and purified by denaturing polyacrylamide gel-elution. 100 μM purified RNA oligonucleotides were treated with 10 mM iodoacetamide (+IAA) or EtOH (−IAA) in standard reaction conditions (50% DMSO, 50 mM sodiumphosphate buffer, pH 8) for 15 min at 50° C. The reaction was stopped by addition of 20 mM DTT, followed by ethanol precipitation. RT primer (see Table for sequence) was 5′ radiolabeled using γ-^32P-ATP (Perkin-Elmer) and T4-polynucleotide kinase (NEB), followed by denaturing polyacrylamide gel-purification. 640 nM γ-^32P-RT primer was annealed to 400 nM 5L-let-7-3L or 5L-let-7-s^4Up9-3L in 2× annealing buffer (500 mM KCl, 50 mM Tris pH 8.3) in a PCR machine (3 min 95° C., 30 sec 85° C. Ramp 0.5° C./s, 5 min 25° C. Ramp 0.1° C./s). Reverse transcription was performed using Superscript II (Invitrogen), Superscript III (Invitrogen), or Quant-seq RT (Lexogen) as recommended by the manufacturer. For dideoxynucleotide reactions, a final concentration of 500 μM ddNTP (as indicated) was added to RT reactions. Upon completion, RT reactions were resuspended in formamide loading buffer (Gel loading buffer II, Thermo Fisher Scientific) and subjected to 12.5% denaturing polyacrylamide gel electrophoresis. Gels were dried, exposed to storage phosphor screen (PerkinElmer), imaged on a Typhoon TRIO variable mode imager (Amersham Biosciences), and quantified using ImageQuant TL v7.0 (GE Healthcare). […]
For sequencing analysis of synthetic RNA samples (FIG. 5) barcoded libraries were demultiplexed using Picard Tools BamIndexDecoder v1.13 allowing 0 mismatches in the barcode. […] Remaining aligned reads were converted to pileup format. […] Output table was analyzed and plotted in Excel v15.22 (Microsoft) and Prism v7.0a (GraphPad). […]

[9] = target: T1, Superscript II (Moloney murine leukemia virus, UniProt P03355, D1183G/D1242N/E1221Q); experiment: pH-dependent reverse transcription of 5BrU-containing RNA oligonucleotide measured by sequencing; assay type: biochemical
T1 construct: purchased Thermo Fisher Scientific
Description: Further, it has been shown that 5BrU is taken up by cells, phosphorylated, and incorporated into nascent RNA (Larsen et al., Current Protocols in Cytometry. 12 (7.12): 7.12.1-7.12.11, 2001). […] We used […] of the synthetic RNA oligonucleotide which contained a 5BrU modification at a single central position. […] The reverse transcription was performed by Superscript II (Thermo Fisher Scientific) according to the instructions of the manufacturer using the RT DNA oligonucleotide primer (5″-[…]-3″, SEQ ID NO: 9) and 5×RT buffer for which pH was adjusted to pH7, pH8, or pH9, respectively. After reverse transcription, […] reverse transcription product was subjected to PCR amplification using KAPA Real-time Library Amplification Kit (KAPA Biosystems) according to the instructions of the manufacturer, using the DNA oligonucleotides Solexa PCR Fwd (5″-[…]-3′, SEQ ID NO: 10) and Solexa IDX rev (5′-[…]-3′, SEQ ID NO: 11; NNNNNN indicates the position of the barcode-nucleotides). The amplified libraries were sequenced by high-throughput sequencing using the Illumina MiSeq platform. The conversion rates for the 5BrU nucleotide were determined by counting the frequency of nucleotide A (adenine), G (guanine), and C (cytosine) other than the expected majority readout of T (thymine) at the position of 5BrU.
The pH-dependent conversion rates of 5BrU, or T in the final readout, to A (T>A conversion) show a 1.1-fold and 1.4-fold increase with an increase of pH during reverse transcription to pH 8 and pH 9 respectively compare to the background conversion rate of 3·10^−4 at pH 7 (FIG. 37C). The T>G conversion increases by 1.2- and 1.9-fold compare to the lower background conversion rate of 1·10^−4 at pH 7. In contrast, the T>C conversion rate increases by 2.2-fold and 4.3-fold compare to the background conversion rate of 3·10^−4 at pH 7. The signature of the pH dependent changes in conversion rates is characteristic for the 5BrU in the RNA and can be used to identify the number of 5BrU which are incorporated into nascent RNA during transcription.

[10] = system: MOLM-13 cells; experiment: SLAM-seq transcriptional response to NVP-2 and JQ1 in MOLM-13 cells; assay type: cell-based, human
Description: as §1, §2

Compound: Cc1sc2c(c1C)C(c1ccc(Cl)cc1)=N[C@@H](CC(=O)OC(C)(C)C)c1nnc(C)n1-2 [JQ1]
- direct transcriptional response ([1]; 200 nM): selective deregulation of a small number of transcripts
- direct transcriptional response ([1]; high-dose (1 or 5 μM)): broadly suppressed transcription
- Pol2-S2 phosphorylation [2]: globally reduced Pol2-S2 phosphorylation
- Pol2-S2 phosphorylation [3]: globally reduced Pol2-S2 phosphorylation
- direct transcriptional response [4]: broadly suppressed transcription

Compound: O=C(O)Cc1c[nH]c2ccccc12 [auxin, indole-3-acetic acid]
- time to degradation of MYC [5]: less than 30 ′
- time to complete degradation of MYC [6]: less than 30 ′
- time to near complete degradation of BRD4 [7]: ≤ 30 ′

Compound: 4-thiouridine [s^4U]
- conversion observed [8]: G to A conversion

Compound: O=c1[nH]c(=O)n([C@@H]2O[C@H](CO)[C@@H](O)[C@H]2O)cc1Br [5BrU, 5-Bromouridine]
- T>A background conversion rate ([9]; pH 7): 3·10^−4
- T>C background conversion rate ([9]; pH 7): 3·10^−4
- T>G background conversion rate ([9]; pH 7): 1·10^−4
- increase of T>A conversion rate relative to pH 7 ([9]; pH 8): 1.1 fold
- increase of T>C conversion rate relative to pH 7 ([9]; pH 8): 2.2 fold
- increase of T>G conversion rate relative to pH 7 ([9]; pH 8): 1.2 fold
- increase of T>A conversion rate relative to pH 7 ([9]; pH 9): 1.4 fold
- increase of T>C conversion rate relative to pH 7 ([9]; pH 9): 4.3 fold
- increase of T>G conversion rate relative to pH 7 ([9]; pH 9): 1.9 fold

Compound: COC[C@@H](C)NC1CCC(Nc2cc(-c3cccc(NCC4(C#N)CCOCC4)n3)c(Cl)cn2)CC1 (some centres unmarked) [NVP-2]
- transcriptional response ([10]; high-dose, 60 nM): globally suppressed transcription
- transcriptional response ([10]; intermediate dose, 6 nM): selective transcriptional responses
